Results published in patent publication EP0411395A2, “Use of ACE inhibitors for atherosclerosis-prophylaxis” (THERA PATENT-VERWALTUNGS-GmbH, priority 1989, dated 1991).

Assay: Three-year placebo-controlled study in overweight persons: Doppler sonographic maximal blood flow velocity in the Arteria dorsalis pedis as parameter of atherosclerosis
Type: in vivo, Patienten
Conditions: for MAXIMALE BLUTSTRÖMUNGSGESCHWINDIGK.: 2 x 3 mg tgl. oral, Arteria dorsalis pedis
From the text: Es wurden 122 übergewichtige Personen ausgesucht, die im Mittel 25 % Übergewicht hatten. Diese Patienten gaben nach Aufklärung ihr Einverständnis, an dieser Studie über 3 Jahre teilzunehmen. Sie hatten bereits 5 bis 10 Versuche einer Gewichtsabnahme hinter sich, die alle […] verlaufen waren. Ein Diabetes mellitus war nach der Definition des WHO-Reports (Techn. Rep. Ser. 646, 1 bis 80, 1980) bei diesen Patienten ausgeschlossen. Sie wurden in zwei gleich starke Gruppen eingeteilt, so daß nach Alter sowie Ausmaß und Dauer des Übergewichts kein Unterschied bestand. Die Patienten wurden in halbjährlichen Abständen ambulant kontrolliert. Wie zu Beginn wurden bei diesen Kontrollen folgende Blutwerte gemessen: Blutsenkung, Blutbild, Nüchternblutzucker, IGTT, Gewicht, Cholesterin und Triglyzeride, Serumglutamat-Oxalat-Transaminase (SGOT), Serumglutamat-Pyruvat-Transaminase (SGPT). Damit wurden den Stoffwechsel beeinträchtigende Krankheiten ausgeschlossen. Als Parameter der Atherosklerose wurde die dopplersonographisch bestimmte maximale Blutströmungsgeschwindigkeit in der Arteria dorsalis pedis verwendet. Alle Patienten hatten eine schmerzfreie Gehstrecke von über 200 m, die Arteria dorsalis pedis war gut tastbar. Oszillographisch fand sich kein Anhalt für eine Mediasklerose. Das Vorliegen einer Neuropathie wurde mit den üblichen klinischen Methoden ausgeschlossen.
Die erste Gruppe erhielt 2 x 3 mg Captopril täglich, die zweite Gruppe entsprechend Placebo. Die Patienten hatten die Auflage, keine den Stoffwechsel beeinträchtigenden Medikamente wie z.B. Diuretika, Betablocker oder dergleichen einzunehmen. In beiden Gruppen schieden über den Zeitraum von 3 Jahren 28 Patienten aus verschiedenen Gründen aus. Die Gruppen veränderten sich dadurch jedoch nicht so sehr, daß sie statistisch nicht mehr auswertbar gewesen wären. […] Die Ergebnisse des Versuchs sind in der nachstehenden Tabelle 1 dargestellt. Tabelle I

C[C@H](CS)C(=O)N1CCC[C@H]1C(=O)O [Captopril, 1-(2S)-3-Mercapto-2-methylpropionyl -L-prolin]
MAXIMALE BLUTSTRÖMUNGSGESCHWINDIGK. (1985 - 1 (start), Risikopatienten (Stoffwechselgesunde Übergewichtige), n=63): 13,6 ± 0,4 cm/s
MAXIMALE BLUTSTRÖMUNGSGESCHWINDIGK. (1986 - 2, Risikopatienten, n=60): 13,5 ± 0,3 cm/s
MAXIMALE BLUTSTRÖMUNGSGESCHWINDIGK. (1987 - 2, Risikopatienten, n=54): 13,4 ± 0,2 cm/s
MAXIMALE BLUTSTRÖMUNGSGESCHWINDIGK. (1988 - 1 (after 3 years), Risikopatienten, n=48): 13,5 ± 0,2 cm/s
Abfall der maximalen Blutströmungsgeschwindigkeit (nach 3 Jahren, versus Placebo, 2 x 3 mg Captopril täglich, p 0,05, Student's t-Test): signifikant geringerer Abfall
